Source: ChEMBL document CHEMBL5046256, “The discovery of potent small molecule cyclic urea activators of STING” (Eur J Med Chem, 2022)
pEC50: −log10 of the molar value. The source made the active and inactive calls. No cut-off for these calls is given here.

How the values were obtained:
[1] = system: HEK-293T; experiment: Agonist activity against human STING R232H variant transfected in HEK-293T cells co-expressing ISRE.ISG54 at 0.5 uM by luciferase reporter gene assay relative to control; format: cell-based
[2] = Agonist activity against human STING R232H variant transfected in HEK-293T cells co-expressing ISRE.ISG54 by luciferase reporter gene assay; format: cell-based; conditions: Homo sapiens, HEK-293T
[3] = target: T1, Stimulator of interferon genes protein (Homo sapiens, UniProt Q86WV6); experiment: Agonist activity against human STING H232 variant transfected in HEK-293T cells co-expressing ISRE.ISG54 incubated for 18 hrs by luciferase reporter gene assay; format: cell-based
T1 sequence (Q86WV6 whole entry, looked up, stated change not applied): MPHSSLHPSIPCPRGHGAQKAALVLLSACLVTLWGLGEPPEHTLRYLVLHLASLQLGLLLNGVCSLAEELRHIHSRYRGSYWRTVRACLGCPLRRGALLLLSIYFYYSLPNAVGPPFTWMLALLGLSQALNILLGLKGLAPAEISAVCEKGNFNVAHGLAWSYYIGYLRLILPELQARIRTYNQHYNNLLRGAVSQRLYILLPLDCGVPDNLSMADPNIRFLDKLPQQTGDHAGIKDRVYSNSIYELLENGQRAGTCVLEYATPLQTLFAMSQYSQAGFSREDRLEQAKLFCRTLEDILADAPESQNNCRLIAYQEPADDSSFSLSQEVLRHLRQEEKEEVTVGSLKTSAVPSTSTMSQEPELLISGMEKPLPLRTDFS

[4] = target: T1, Stimulator of interferon genes protein; experiment: Agonist activity against human STING HAQ variant expressed in HEK-293T cells co-expressing ISRE.ISG54 incubated for 18 hrs by luciferase reporter gene assay; format: cell-based
[5] = target: T1, Stimulator of interferon genes protein; experiment: Agonist activity against human STING AQ variant transfected in HEK-293T cells co-expressing ISRE.ISG54 incubated for 18 hrs by luciferase reporter gene assay; format: cell-based
[6] = target: T1, Stimulator of interferon genes protein; experiment: Agonist activity against human STING Q variant expressed in HEK293T cells co-expressing ISRE.ISG54 incubated for 18 hrs by luciferase reporter gene assay; format: cell-based; conditions: hek-293t
[7] = target: T1, Stimulator of interferon genes protein; experiment: Agonist activity against human STING HAQ variant expressed in THP-1 cells co-expressing ISRE.ISG54 incubated for 18 hrs by luciferase reporter gene assay; format: cell-based
[8] = Agonist activity against cynomolgus monkey STING expressed in HEK-293T cells co-expressing co-expressing ISRE.ISG54 by luciferase reporter gene assay; format: cell-based; conditions: Macaca fascicularis
[9] = system: PBMC; experiment: Effect of compound on STING phosphorylation in cynomolgus monkey PBMC cells at 10 uM for 2 hrs by immunoblotting; format: functional, cell-based; conditions: Macaca fascicularis
[10] = system: PBMC; experiment: Effect of compound on IRF3 phosphorylation in cynomolgus monkey PBMC cells at 10 uM for 2 hrs by immunoblotting; format: functional, cell-based; conditions: Macaca fascicularis
[11] = system: Stimulator of interferon genes protein (Homo sapiens), Q86WV6 [UNDEFINED MUTATION]; experiment: Binding affinity to human STING R232 variant expressed in HEK-293T cells assessed as increase in thermal stability measured between 51 and 56 deg C at 10 uM for 2 hrs by cellular thermal shift assay; format: cell-based; conditions: filed as agonist
Sequence of Stimulator of interferon genes protein (Homo sapiens), Q86WV6 [UNDEFINED MUTATION] (Q86WV6 whole entry, looked up, change not shown): as the sequence (Q86WV6 whole entry, looked up, stated change not applied) above

[12] = Cmax/C0 in Balb/c mouse at 25 mg/kg, iv measured by LC-MS/MS analysis; format: ADME, organism-based; parameters: route intravenous, dose 25 mg/kg; conditions: in vivo
[13] = Cmax/C0 in Balb/c mouse at 25 mg/kg, po measured by LC-MS/MS analysis; format: ADME, organism-based; parameters: route oral, dose 25 mg/kg; conditions: in vivo
[14] = Cmax/C0 in monkey at 2.5 mg/kg, iv measured by LC-MS/MS analysis; format: ADME, organism-based, Macaca mulatta; parameters: route intravenous, dose 2.5 mg/kg; conditions: rhesus monkey, in vivo
[15] = AUC in Balb/c mouse at 25 mg/kg, iv measured by LC-MS/MS analysis; format: ADME, organism-based; parameters: dose 25 mg/kg; conditions: in vivo
[16] = AUC in Balb/c mouse at 25 mg/kg, po measured by LC-MS/MS analysis; format: ADME, organism-based; parameters: dose 25 mg/kg; conditions: in vivo
[17] = AUC in monkey at 2.5 mg/kg, iv measured by LC-MS/MS analysis; format: ADME, organism-based, Macaca mulatta; parameters: dose 2.5 mg/kg; conditions: rhesus monkey, in vivo
[18] = Half life in Balb/c mouse at 25 mg/kg, iv measured by LC-MS/MS analysis; format: ADME, organism-based; conditions: in vivo
[19] = Half life in Balb/c mouse at 25 mg/kg, po measured by LC-MS/MS analysis; format: ADME, organism-based; conditions: in vivo
[20] = Half life in monkey at 2.5 mg/kg, iv measured by LC-MS/MS analysis; format: ADME, organism-based, Macaca mulatta; conditions: rhesus monkey, in vivo
[21] = Oral bioavailability in Balb/c mouse at 25 mg/kg measured by LC-MS/MS analysis; format: ADME, organism-based; conditions: in vivo
[22] = system: PBMC; experiment: Effects of compound on IL-6 production in cynomolgus monkey PBMC cells assessed as increase in IL-6 level at 10 uM and measured upto 24 hrs by ELISA; format: functional, cell-based; conditions: Macaca fascicularis
[23] = system: PBMC; experiment: Effects of compound on IFN-alpha production in cynomolgus monkey PBMC cells assessed as increase in […] level at 10 uM and measured upto 24 hrs by ELISA; format: functional, cell-based; conditions: Macaca fascicularis
[24] = system: PBMC; experiment: Effects of compound on IFN-beta production in cynomolgus monkey PBMC cells assessed as increase in […] level at 10 uM and measured upto 24 hrs by ELISA; format: functional, cell-based; conditions: Macaca fascicularis
[25] = system: HEK-293T; experiment: Agonist activity against human STING R232H variant transfected in HEK-293T cells co-expressing ISRE.ISG54 at 0.2 uM by luciferase reporter gene assay relative to control; format: cell-based; conditions: filed as agonist
[26] = system: HEK-293T; experiment: Agonist activity against human STING R232H variant transfected in HEK-293T cells co-expressing ISRE.ISG54 at 1 uM by luciferase reporter gene assay relative to control; format: cell-based; conditions: filed as agonist

`Cc1cc(CN2C(=O)N(C)C(C)c3ccc(C(=O)NCc4c(F)cc(F)cc4F)cc32)c(F)cn1` (configuration not stated) gave an Activity ([1]; filed as agonist) of 64%.

`CC1c2ccc(C(=O)NCc3c(F)cc(F)cc3F)cc2N(Cc2ccccc2F)C(=O)N1C` (configuration not stated) showed an Activity ([1]; filed as agonist) of 54%.

Molecule `Cc1cc(CN2C(=O)N(C)C(C)c3ccc(C(=O)NCc4c(F)cc(F)cc4F)cc32)no1` (configuration not stated) has an Activity [1] of 6%.

`C[C@H]1c2ccc(C(=O)NCc3c(F)cc(F)cc3F)cc2N(Cc2c(F)cccc2Cl)C(=O)N1C` gave a pEC50 [2] of 7.74, a pEC50 [3] of 7.23 and a pEC50 [4] of 7.59. The pEC50 [5] was 7.08, the pEC50 [6] was 7.05 and the pEC50 [7] was 6.47. For the same molecule, the pEC50 [8] was 7.00, the Activity [9] was “Active” and the Activity [10] was “Active”. The Activity [11] was “Active”, the Cmax [12] was 20100 ng/mL and the Cmax [13] was 2480 ng/mL. It also gave a Cmax [14] of 5220 ng/mL, an AUC [15] of 10900 ng·h/mL and an AUC [16] of 4850 ng·h/mL. For the same molecule, the AUC [17] was 8050 ng·h/mL, the half-life [18] was 84 min and the half-life [19] was 96 min. The half-life [20] was 426 min, the bioavailability [21] was 44% and the Activity [22] was “Active”. The Activity [23] was “Active” and the Activity [24] was “Active”.

`CC1c2ccc(C(=O)NCc3c(F)cc(F)cc3F)cc2N(Cc2cc(F)cc(F)c2)C(=O)N1C` (racemic) showed an Activity [25] of 81%.

For `CC1c2ccc(C(=O)NCc3c(F)cc(F)cc3F)cc2N(Cc2ccccc2)C(=O)N1C` (racemic), the Activity ([1]; filed as agonist) was 74% and the Activity [26] was 73%.

For `CC1c2ccc(C(=O)NCc3c(F)cc(F)cc3F)cc2N(Cc2c(F)cccc2S(C)(=O)=O)C(=O)N1C` (configuration not stated), the Activity [26] was 61%.

`Cc1cc(CN2C(=O)N(C)C(C)c3ccc(C(=O)NCc4c(F)cc(F)cc4F)cc32)on1` (configuration not stated) gave an Activity [1] of 6%.

Work on `CC1c2ccc(C(=O)NCc3c(F)cc(F)cc3F)cc2N(Cc2cc(C(N)=O)ccc2F)C(=O)N1C` (configuration not stated) yielded an Activity [26] of 71%.
